Several values for one entry are separate records, joined by “and”; a condition that tells them apart may be missing. Identical values can stand only once.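 Five concentrations, 48 hours, 96-well plates. Abbreviation: GI50, concentration required for 50% inhibition of growth. TGI: total growth inhibition.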
These compounds were tested on MDA-MB-468 breast (assay: DTP human tumour cell line panel, 48 h).
In the case of `O=C(NC(=O)c1c(F)cccc1F)Nc1cccc(Oc2ncc(Cl)cn2)c1`, the GI50 is reported as 7.78 µM and the TGI is reported as > 100 µM. For `CS(=O)(=O)CCNCc1coc(-c2ccc3ncnc(Nc4ccc(OCc5ccccc5)cc4)c3c2)c1`, the GI50 was 0.543 µM and the TGI was 3.8 µM. `Cc1nnc(-c2ccc(C)c(-c3ccc(C(=O)Nc4cccc(C#N)c4)cc3)c2)o1` was tested, and the GI50 was 8.65 µM and the TGI was > 25 µM. In the case of `O=C(/C=C/c1ccccc1)Nc1ncc(Cc2ccccc2Cl)s1`, the GI50 is reported as 0.37 µM and the TGI is reported as > 71.5 µM. With `CC1(C)N=C(N)N=C(N)N1c1ccc(CCC(=O)Nc2ccc(S(=O)(=O)F)cc2)c(Cl)c1` the GI50 was 0.864 µM and the TGI was > 100 µM. Compound `C=C1c2c(C)nn(-c3ccc(C#CCOC4OC(CO)C(O)C(O)C4O)cc3)c2N(C)C23C[C@H]1C1(C)c4c(C)nn(-c5ccc(C#CCOC6OC(CO)C(O)C(O)C6O)cc5)c4N(C)C(C)(C[C@H]12)C3` (some centres undefined) has a GI50 of 1.34 µM and a TGI of 2.73 µM. In the case of `COc1cc(Nc2ncccc2C(=O)Nc2nc3ccc(F)cc3s2)cc(OC)c1OC`, the GI50 is reported as 1.22 µM and the TGI is reported as 8.85 µM. For `Nc1n[nH]c2cccc(C#Cc3cccc(NC(=O)c4cccc(C(F)(F)F)c4)c3)c12`, the GI50 was 9.71 µM and the TGI was 28.2 µM. With `CCOc1cccc(/C=N/NC(=O)c2cccc(Nc3ccnc(C(F)(F)F)c3)c2)c1O` the GI50 was 0.327 µM and the TGI was > 100 µM. `O=c1[nH]c2ccccc2cc1-c1nc2ccc(Cl)cc2[nH]1` was tested, and the GI50 was 3.26 µM and the TGI was > 100 µM. In the case of `CCCOC(=O)N[C@H]1CCc2c(Cl)c(OC)c(OC)c(OC)c2-c2ccc(SC)c(=O)cc21`, the GI50 is reported as < 0.01 µM and the TGI is reported as 16.3 µM. `COC(=O)c1ccc2[nH]c(O)c(C(=Nc3ccc(N(C)C(=O)CN4CCN(C)CC4)cc3)c3ccc4c(c3)OCO4)c2c1` gave a GI50 of 0.84 µM and a TGI of 2.38 µM. With `CCCC(C)c1ccc(OCCCCCCN2CCNCC2)cc1` (centres undefined) the GI50 was 1.71 µM and the TGI was 3.49 µM. Compound `Nc1ncc(-c2cnn(C3CCNCC3)c2)cc1-c1nc2cc(Cl)ccc2o1` has a GI50 of 1.65 µM and a TGI of 3.29 µM. `C=CC(=O)N1CCC(Oc2cc3c(Nc4ccc(Cl)c(Cl)c4F)ncnc3cc2OC)CC1` was tested, and the GI50 was < 0.001 µM and the TGI was < 0.01 µM and 0.0199 µM. For `O=C(O)c1ccc(CN2CCC(CN[C@@H]3C[C@H]3c3ccccc3)CC2)cc1`, the GI50 was > 100 µM and the TGI was > 100 µM. With `O=C1NC(=S)S/C1=C/c1ccc2c(c1)OCO2` the GI50 was > 100 µM and the TGI was > 100 µM. With `Cc1cn(-c2cc(NC(=O)c3cccc(C#Cc4cccc5[nH]nc(N)c45)c3)cc(C(F)(F)F)c2)cn1` the GI50 was 17.1 µM and the TGI was > 100 µM. In the case of `CCN(CC)CCNC(Cc1ccccc1)c1ccc(OCc2ccccc2)cc1` (centres undefined), the GI50 is reported as 4.24 µM and the TGI is reported as 18.3 µM. `NC(CSC(c1ccccc1)(c1ccccc1)c1ccccc1)C(=O)NCC(=O)O` (centres undefined) was tested, and the GI50 was 2.88 µM and the TGI was 17.7 µM. For `CN(c1ccc(NC(=O)Nc2c(Cl)cccc2Cl)cc1)c1ccnc(Nc2cccc(CS(C)(=O)=O)c2)n1`, the GI50 was 1.11 µM and the TGI was 6.44 µM. Work on `O=C1C=CC(=O)C2C1C1(Cl)C(Cl)=C(Cl)C2(Cl)C1(Cl)Cl` (centres undefined) yielded a GI50 of 3.29 µM and a TGI of 11.3 µM. Work on `COc1cccc2c1C(=N)c1c(O)c3c(c(O)c1C2=O)C[C@@](O)(C(C)=O)C[C@@H]3O[C@H]1C[C@H](N)[C@H](O)[C@H](C)O1` yielded a GI50 of 0.278 µM and a TGI of 1.28 µM. For `CC/C=C\C[C@H]1CC=C2C(=O)C=C[C@@H]2CC=CCCCC(=O)O[C@@H](CCCCC)CC=C2C(=O)C=C[C@@H]2CC=CCCCC(=O)O[C@@H](CCCCC)CC=C2C(=O)C=C[C@@H]2CC=CCCCC(=O)O[C@@H](CCCCC)CC=C2C(=O)C=C[C@@H]2CC=CCCCC(=O)O1`, the GI50 was 1.7 µM and the TGI was 4.22 µM. `COc1ccc2c(c1)NC1=C(C(=O)OC1)C2c1cc(OC)c(OC)c(OC)c1` (centres undefined) was tested, and the GI50 was < 0.01 µM and the TGI was < 0.01 µM. For `C=C(C)[C@@H]1CC[C@]2(COCCCN)CC[C@]3(C)[C@H](CC[C@@H]4[C@@](C)(CCCNCCCN)[C@H](C(=C)C)CC[C@]43C)[C@@H]12`, the GI50 was 1.87 µM and the TGI was 3.75 µM. For `CCN1C(=O)c2ccc3c4c(ccc(c24)C1=O)C(=O)N(CCCNCc1ccccc1OC)C3=O`, the GI50 was 0.326 µM and the TGI was 1.3 µM. `COc1cc(C2c3cc4c(cc3OC(C)(N3CCCC3)C2C)OCO4)cc(OC)c1OC` (centres undefined) was tested, and the GI50 was 0.419 µM and the TGI was 31.2 µM. In the case of `CCOc1cc(C(C)(C)C)ccc1C1=N[C@H](c2ccc(Cl)cc2)[C@H](c2ccc(Cl)cc2)N1C(=O)N1CCN(CC#Cc2cccc3c2CN([C@@H]2CCC(=O)NC2=O)C3=O)CC1`, the GI50 is reported as 0.0321 µM and the TGI is reported as > 100 µM. `CCCCCCCCn1ccc2cc(NC(=O)Cn3cc(CN4CCCCCC4)nn3)ccc21` was tested, and the GI50 was 1.65 µM and the TGI was 3.33 µM. `CN(C)C/C=C/C(=O)Nc1ccc(C(=O)N[C@@]2(C)CCC[C@@H](Nc3ncc(Cl)c(-c4c[nH]c5ccccc45)n3)C2)nc1` showed a GI50 of 0.0108 µM and a TGI of 0.0352 µM. `O=C(Oc1ccc[nH]c1=O)c1cc([N+](=O)[O-])cc([N+](=O)[O-])c1` was tested, and the GI50 was > 100 µM and the TGI was > 100 µM.

From PubChem BioAssay (NCI)
